Values of other authors, collected in US20100092557A1 (priority 2006, published 2010).

details: general statement in the background; species and matrix not given

| SMILES | half-life [h] |
| --- | --- |
| O=C(O)Cc1ccccc1Nc1c(Cl)cccc1Cl [diclofenac] | 1.1 |
| O=C(O)c1ccccc1Nc1cccc(C(F)(F)F)c1 [flufenamic acid] | 1.4 |
| COc1ccc2c(c1)c(CC(=O)O)c(C)n2C(=O)c1ccc(Cl)cc1 [indomethacin] | 4.6 |
| CCCCC1C(=O)N(c2ccccc2)N(c2ccccc2)C1=O [phenylbutazone] | 68 |
| CN1C(C(=O)Nc2ccccn2)=C(O)c2ccccc2S1(=O)=O [piroxicam] | 57 |
| CC(C(=O)O)c1ccc(C(=O)c2ccccc2)s1 (stereo not drawn) [tiaprofenic acid] | 3.0 |
